Results published in patent US20240165261A1, “MEANS AND METHOD FOR CYTOSOLIC DELIVERY” (Universiteit Gent, priority 2021, published 2024).

System: primary human T cells
Experiment: FD10 delivery in primary human T cells by flow cytometry
Assay type: cell-based
Details: human T cells with dex-NG and FD10, ROS scavenger added (FIG. 12a)
Procedure: FIG. 8. […] Human T cells were isolated from peripheral blood mononuclear cells and expanded for several weeks. […] As a control, cells were treated with nucleofection (program E0-115, Lonza Nucleofector, white bars) (a) Quantitative analysis of FD10 delivery efficiency using flow cytometry. Cells were stained with a membrane exclusion dye (TO-PRO-3 iodide) staining dead cells. TO-PRO-3 iodide negative cells were gated for delivery efficiency analysis. (b) Analysis of cell viability, 4 h after treatment, using an ATP-based viability assay (CellTiter-Glo®). (c-d) Quantitative analysis of FD10 delivery efficiency using flow cytometry on TO-PRO-3 iodide negative cells. The yield is determined as percentage living cells (based on CellTiter-Glo® assay), multiplied by the percentage of FD10-positive cells. Data shown as the mean±SD of three independent experiments (n=3). Statistical significance is reported where relevant (ns p≥0.05, * p<0.05, ** p≤0.01, *** p≤0.001, **** p≤0.0001).
Human T cells were seeded at 1×10^6 cells per well in a glass bottom 96-well plate (Greiner Bio-One GmbH, Vilvoorde, Belgium). […] Quantitative analysis of delivery efficiency was performed using flow cytometry on living (i.e. TO-PRO-3 negative) cells (CytoFLEX equipped with CytExpert software; Beckman Coulter, Krefeld, Germany). […]

OCCS [β-mercaptoethanol]
beneficial effect on cytosolic FD10 delivery as seen with NAC: could not be replicated
